Assay results published in the supplement of paper PMC11061612.

Columns and labels:
[1] = system: Hs-633T (Other Solid Carcinomas); assay: Bliss excess, mean over the matrix (fraction); higher = more synergy
Procedure, shortened: (§1)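 Bliss excess equals the observed combination effect minus the expected value EA + EB − EA·EB, where EA and EB are the effects of each agent alone. Combination Emax is the second-highest inhibition within the matrix. Inhibition was scaled from CellTiter-Glo 2.0 luminescence, with 0 set by vehicle wells and 1 by blank wells, after 72 hours of two-drug dosing of cells plated in 1536-well plates.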

[2] = system: HO-1-u-1 (Oral Cavity Carcinoma); assay: as above
Procedure, shortened: as §1

HMV-II (Melanoma) [3] = assay: as above
Procedure, shortened: as §1

NCI-H2461 (Mesothelioma) = assay: as above
Procedure, shortened: as §1

[4] = system: 8305C (Thyroid Gland Carcinoma); assay: as above
Procedure, shortened: as §1

[5] = system: HDLM-2 (Hodgkin's Lymphoma); assay: as above
Procedure, shortened: as §1

NCI-H2795 (Mesothelioma) = assay: as above
Procedure, shortened: as §1

[6] = system: SW1116 (Colorectal Carcinoma); assay: as above
Procedure, shortened: as §1

[7] = system: SU-DHL-6 (B-Cell Non-Hodgkin's Lymphoma); assay: as above
Procedure, shortened: as §1

[8] = system: MDA-MB-468 (Breast Carcinoma); assay: as above
Procedure, shortened: as §1

[9] = system: RPMI-6666 (Non-Cancerous); assay: combination Emax (second highest fraction inhibited in the dose matrix, 72 h); higher = more inhibition; extreme values may be limits of the assay
Procedure, shortened: as §1

[10] = system: NCI-H69 (Small Cell Lung Carcinoma); assay: as above
Procedure, shortened: as §1

SH-4 (Melanoma) = assay: as above
Procedure, shortened: as §1

[11] = system: LU-139 (Small Cell Lung Carcinoma); assay: as above
Procedure, shortened: as §1

HMV-II (Melanoma) [12] = assay: as above
Procedure, shortened: as §1

[13] = system: HARA (Squamous Cell Lung Carcinoma); assay: as above
Procedure, shortened: as §1

Mewo (Melanoma) = assay: as above
Procedure, shortened: as §1

[14] = system: HDLM-2 (Hodgkin's Lymphoma); assay: as above
Procedure, shortened: as §1

[15] = system: SW1116 (Colorectal Carcinoma); assay: as above
Procedure, shortened: as §1

[16] = system: RT-112 (Bladder Carcinoma); assay: as above
Procedure, shortened: as §1

| SMILES | Bliss excess [1] | Bliss excess [2] | Bliss excess (HMV-II (Melanoma) [3]) | Bliss excess (NCI-H2461 (Mesothelioma)) | Bliss excess [4] | Bliss excess [5] | Bliss excess (NCI-H2795 (Mesothelioma)) | Bliss excess [6] | Bliss excess [7] | Bliss excess [8] | combination Emax [9] | combination Emax [10] | combination Emax (SH-4 (Melanoma)) | combination Emax [11] | combination Emax (HMV-II (Melanoma) [12]) | combination Emax [13] | combination Emax (Mewo (Melanoma)) | combination Emax [14] | combination Emax [15] | combination Emax [16] |
| --- | --- | --- | --- | --- | --- | --- | --- | --- | --- | --- | --- | --- | --- | --- | --- | --- | --- | --- | --- | --- |
| CN(CCO)CC[C@H](CSc1ccccc1)Nc1ccc(S(=O)(=O)NC(=O)c2ccc(N3CCC([C@@H](O)c4ccccc4-c4ccc(Cl)cc4)CC3)cc2)cc1S(=O)(=O)C(F)(F)F [AZD4320] + Nc1ccn([C@@H]2O[C@H](CO)[C@@H](O)C2(F)F)c(=O)n1 [Gemcitabine] (first compound max 1 µM, 7x7, partner max 0.3 µM) | 0.0434 | 0.0383 | -0.0109 | 0.0285 | 0.072 | 0.0204 | -0.0094 | -0.0292 | -0.0131 | -0.0034 | 0.985 | 0.946 | 0.642 | 0.961 | 0.619 | 0.8 | 0.451 | 0.935 | 0.184 | 0.507 |
| O=C(c1cc(Cc2n[nH]c(=O)c3ccccc23)ccc1F)N1CCN(C(=O)C2CC2)CC1 [Olaparib] + COc1nnc2ccc(N3CCC(c4ccc(OCCN5CCN(C)C(=O)[C@H]5C)cc4)CC3)nn12 [AZD5153] (first compound max 10 µM, 7x7, partner max 1 µM) | 0.0223 | -0.0022 | -0.046 | -0.118 | -0.0634 | -0.0334 | -0.085 | -0.0745 | -0.0338 | -0.0737 | 0.633 | 0.488 | 0.514 | 0.896 | 0.474 | 0.582 | 0.417 | 0.356 | 0.332 | 0.157 |
| O=C(c1cc(Cc2n[nH]c(=O)c3ccccc23)ccc1F)N1CCN(C(=O)C2CC2)CC1 [Olaparib] + CN(CC[C@H](CSC1=CC=CC=C1)NC2=C(C=C(C=C2)S(=O)(=O)NC(=O)C3=CC=C(C=C3)N4CCC(CC4)[C@H](C5=CC=CC=C5C6=CC=C(C=C6)Cl)O)S(=O)(=O)C(F)(F)F)CCO [AZD4320] (first compound max 10 µM, 7x7, partner max 1 µM) | 0.0017 | 0.0123 | -0.0537 | -0.0534 | -0.0062 | -0.0141 | -0.0086 | -0.0404 | 0.0091 | -0.043 | 0.94 | 0.954 | 0.162 | 0.958 | 0.0872 | 0.162 | 0.0936 | 0.878 | 0.118 | 0.153 |
| Cc1cc2ncnn2cc1Nc1ncc2c(n1)n(C1CCOCC1)c(=O)n2C [AZD7648] + COc1cc([C@@H]2c3cc4c(cc3[C@@H](O[C@@H]3O[C@@H]5CO[C@@H](C)O[C@H]5[C@H](O)[C@H]3O)[C@H]3COC(=O)[C@H]23)OCO4)cc(OC)c1O [Etoposide] (first compound max 10 µM, 7x7, partner max 10 µM) | 0.174 | 0.11 | 0.0864 | 0.0136 | -0.0413 | -0.0015 | -0.0093 | -0.0028 | 0.0914 | 0.0376 | 0.958 | 0.67 | 0.492 | 0.875 | 0.655 | 0.627 | 0.71 | 0.715 | 0.192 | 0.798 |
| O=C(c1cc(Cc2n[nH]c(=O)c3ccccc23)ccc1F)N1CCN(C(=O)C2CC2)CC1 [Olaparib] + Cc1c2c(nn1C)CSCc1cc(n(C)n1)CSc1cc(c3ccccc3c1)OCCCc1c(C(=O)O)n(C)c3c-2c(Cl)ccc13 [AZD5991] (first compound max 10 µM, 7x7, partner max 1 µM) | -0.0037 | -0.0224 | -0.0561 | -0.0502 | -0.0391 | -0.0194 | -0.0207 | -0.0503 | 0.0065 | -0.0391 | 0.794 | 0.239 | 0.155 | 0.132 | 0.0925 | 0.277 | 0.161 | 0.937 | 0.0456 | 0.672 |
| C[C@@H]1COCCN1c1cc(C2([S@](C)(=N)=O)CC2)nc(-c2ccnc3[nH]ccc23)n1 [AZD6738] + C1CC(C1)(C(=O)[O-])C(=O)[O-].N.N.[Pt+2] [Carboplatin] (first compound max 10 µM, 7x7, partner max 10 µM) | -0.0264 | -0.074 | -0.0067 | -0.05 | -0.046 | 0.0001 | -0.0819 | -0.0483 | -0.0174 | -0.0511 | 0.7 | 0.373 | 0.277 | 0.258 | 0.454 | 0.853 | 0.526 | 0.472 | 0.247 | 0.679 |
| N#Cc1cnc(Nc2cc(NC[C@H]3CNCCO3)c(C(F)(F)F)cn2)cn1 [SRA737] + C=CCn1c(=O)c2cnc(Nc3ccc(N4CCN(C)CC4)cc3)nc2n1-c1cccc(C(C)(C)O)n1 [AZD1775] (first compound max 10 µM, partner max 1 µM) | 0.0888 | 0.0809 | 0.0015 | 0.0428 | 0.0356 | -0.0363 | 0.0401 | -0.0119 | 0.131 | 0.0705 | 0.865 | 0.756 | 0.656 | 0.564 | 0.53 | 0.983 | 0.638 | 0.697 | 0.405 | 0.954 |
| Cc1c2c(nn1C)CSCc1cc(n(C)n1)CSc1cc(c3ccccc3c1)OCCCc1c(C(=O)O)n(C)c3c-2c(Cl)ccc13 [AZD5991] + CS(=O)(=O)CCNCc1ccc(-c2ccc3ncnc(Nc4ccc(OCc5cccc(F)c5)c(Cl)c4)c3c2)o1 [Lapatinib] (first compound max 1 µM, 7x7, partner max 10 µM) | -0.008 | 0.0293 | -0.0587 | -0.0273 | -0.042 | 0.0262 | -0.016 | -0.0369 | 0.0085 | -0.0357 | 0.555 | 0.443 | 0.197 | 0.201 | 0.64 | 0.786 | 0.481 | 0.961 | 0.395 | 0.827 |
| C[C@@H](Oc1cc(-c2cnn(C3CCNCC3)c2)cnc1N)c1c(Cl)ccc(F)c1Cl [Crizotinib] + Cn1cnc2c(F)c(Nc3ccc(Br)cc3Cl)c(C(=O)NOCCO)cc21 [Selumetinib] (first compound max 10 µM, 7x7, partner max 10 µM) | 0.0381 | -0.0779 | -0.0273 | -0.0376 | 0.0017 | -0.0399 | -0.0974 | -0.0239 | -0.0205 | -0.0996 | 0.672 | 0.621 | 0.91 | 0.684 | 0.934 | 0.59 | 0.541 | 0.193 | 0.518 | 0.819 |
| C[C@@H](Nc1cc(F)cc(F)c1)c1cc(C(=O)N(C)C)cc2c(=O)cc(N3CCOCC3)oc12 [AZD8186] + C1CN(CCC1(C(=O)N[C@@H](CCO)C2=CC=C(C=C2)Cl)N)C3=NC=NC4=C3C=CN4 [AZD5363] (first compound max 10 µM, 7x7, partner max 10 µM) | -0.0205 | -0.073 | -0.0515 | -0.0449 | -0.0642 | -0.0194 | -0.106 | -0.0429 | 0.0024 | -0.0305 | 0.672 | 0.536 | 0.214 | 0.0726 | 0.229 | 0.467 | 0.345 | 0.235 | 0.206 | 0.254 |
| N#Cc1cnc(Nc2cc(NC[C@H]3CNCCO3)c(C(F)(F)F)cn2)cn1 [SRA737] + Nc1ccn([C@@H]2O[C@H](CO)[C@@H](O)C2(F)F)c(=O)n1 [Gemcitabine] (first compound max 10 µM, 7x7, partner max 0.3 µM) | 0.0301 | 0.0492 | -0.0122 | -0.0309 | -0.0158 | 0.0526 | -0.0258 | 0.0727 | 0.101 | 0.0293 | 0.933 | 0.778 | 0.577 | 0.832 | 0.64 | 0.902 | 0.788 | 0.854 | 0.649 | 0.899 |
